Laboratory results reported in patent publication US20050014647A1, “Method and composition for determining resistance to an acetohydroxy-acid synthase inhibitor” (priority 2001, published 2005).
“And” between values parts separate entries of the source, which are not always exact repeats. Equal values may be shown once.

Legend:
Type in all cases: cell-based
AHAS [1] = experiment: in vivo AHAS assay, maize leaf discs with external supplement
Description: (§1) The procedure for the preparation of an in vivo AHAS assay is described below:
(§2) For the experiments, plants are grown from seed in soil in a greenhouse. Most experiments used wild type and imidazolinone resistant varieties of wheat, canola, rice, sunflower, and maize.
(§3) For the assay, a a microtiter plate is set up with 100 μl of one of the following solutions in each well: • a. […] Plant., 15 473-497 (1962)); 500 μM CPCA (cyclopropyldicarboxylic acid); • b. Solution B: Solution A+alanine (or other supplements); • c. Solution C: Solution A+a pyruvate salt (or other supplements).
(§4) Plant material is excised from the newest emerging, rapidly growing leaf or stem from the test plant and placed in one of the microtiter plates. Usually, 5 mm leaf discs are cut from the newest emerging leaf. At least 2 discs per plant are cut. One disc is put in a well with Solution A and the other disc in a well with one of the other Solutions B or C (what solution are you using for background?).
(§5) After all wells in the microtiter plate contain plant material, the plate is covered with the microtiter plate cover and the plate with material is placed in a chamber with continuous fluorescent lights for 12 to 16 hours. The incubation is stopped by placing the plate in −20° C. freezer. After tissue and solutions freeze, the plate is thawed at room temperature and 25 μL of 5% sulfuric acid are added to each well. After incubation at 60° C. for 15 minutes, 175 μL of a freshly prepared mixture of α-naphthol (2.5%) and creatine (0.25%) in 2 N NaOH are added to each well and the plate is incubated at 60° C. for 15 minutes.
(§6) 200 μL from each well are transferred to a new plate and OD530 on microtiter plate is readed by a spectrophotometer.

AHAS [2] = experiment: in vivo AHAS assay, wheat leaf discs with external supplement; settings: 14 hours
Description: as §1, §2
(§7) For the assay, a a microtiter plate is set up with 100 μl of one of the following solutions in each well: • a. Solution A: 10 mM phosphate buffer, pH 6; 10% Murashige and Skoog basal mineral salts (according to Murashige, T. and Skoog, F., Physiol. Plant., 15 473-497 (1962)); 500 μM CPCA (cyclopropyldicarboxylic acid); • b. Solution B: Solution A+alanine (or other supplements); • c. Solution C: Solution A+a pyruvate salt (or other supplements).
Plant material is excised from the newest emerging, rapidly growing leaf or stem from the test plant and placed in one of the microtiter plates. Usually, 5 mm leaf discs are cut from the newest emerging leaf. At least 2 discs per plant are cut. One disc is put in a well with Solution A and the other disc in a well with one of the other Solutions B or C (what solution are you using for background?). […]
as §6

AHAS [3] = experiment: in vivo AHAS assay, rice leaf discs with external supplement
Description: as §1, §2, §3, §4, §5, §6

AHAS [4] = experiment: in vivo AHAS assay, sunflower leaf discs with external supplement; settings: 14 hours
Description: as §1, §2, §3, §4, §5, §6

AHAS [5] = experiment: in vivo AHAS assay, canola leaf discs with external supplement; settings: for % of No Alaninor Pyruvate: Pyruvate 0 mM
Description: as §1, §2, §7, §4, §5, §6

AHAS [6] = experiment: as above
[7] = alanine 1.000 % vs 0.000 %, 14 hours
[8] = alanine 1.000 %, 14 hours, 500 μM CPCA
[9] = canola, Alanine (100 mM), replicates 1-3, 14 hours

C[C@H](N)C(=O)O [Alanine, L-alanine]
Ratio (Ala/No Ala) (AHAS [1]; [7]): 1.7 | OD 530 (AHAS [1]; [8]): 0.203 | Ratio (Ala/No Ala) (AHAS [1]; pH 4, 14 hours): 1.89 | in vivo AHAS activity, Alanine (%) 1 (AHAS [1]; pH 4, alanine 1 %, 14 hours): 0.909 | Ratio (Ala/No Ala) (AHAS [1]; pH 5, 14 hours): 3.50 | in vivo AHAS activity, Alanine (%) 1 (AHAS [1]; pH 5, alanine 1 %, 14 hours): 0.847 | Ratio (Ala/No Ala) (AHAS [1]; pH 6, 14 hours): 5.71 | in vivo AHAS activity, Alanine (%) 1 (AHAS [1]; pH 6, alanine 1 %, 14 hours): 1.033 | Ratio (Ala/No Ala) (AHAS [1]; pH 7, 14 hours): 4.32 | in vivo AHAS activity, Alanine (%) 1 (AHAS [1]; pH 7, alanine 1 %, 14 hours): 1.128 | Ratio (Ala/No Ala) (AHAS [2]; alanine 1.000 % vs 0.000 %): 2.1 | OD 530 (AHAS [2]; alanine 1.000 %, 500 μM CPCA): 0.832 | Ratio (Ala/No Ala) (AHAS [3]; [7]): 7.0 | OD 530 (AHAS [3]; [8]): 1.257 | Ratio (Ala/No Ala) (AHAS [3]; pH 4, 14 hours): 2.83 | in vivo AHAS activity, Alanine (%) 1 (AHAS [3]; pH 4, alanine 1 %, 14 hours): 0.903 | Ratio (Ala/No Ala) (AHAS [3]; pH 5, 14 hours): 3.57 | in vivo AHAS activity, Alanine (%) 1 (AHAS [3]; pH 5, alanine 1 %, 14 hours): 0.731 | Ratio (Ala/No Ala) (AHAS [3]; pH 6, 14 hours): 3.65 | in vivo AHAS activity, Alanine (%) 1 (AHAS [3]; pH 6, alanine 1 %, 14 hours): 0.639 | Ratio (Ala/No Ala) (AHAS [3]; pH 7, 14 hours): 3.31 | in vivo AHAS activity, Alanine (%) 1 (AHAS [3]; pH 7, alanine 1 %, 14 hours): 0.58 | Ratio (Ala/No Ala) (AHAS [4]; Sunflower, alanine 1.000 % vs 0.000 %): 3.8 | OD 530 (AHAS [4]; Sunflower, alanine 1.000 %, 500 μM CPCA): 1.857 | Ratio (Ala/No Ala) (AHAS [4]; Sunflower, pH 4): 4.67 | in vivo AHAS activity, Alanine (%) 1 (AHAS [4]; Sunflower, pH 4): 1.682 | Ratio (Ala/No Ala) (AHAS [4]; Sunflower, pH 5): 3.62 | in vivo AHAS activity, Alanine (%) 1 (AHAS [4]; Sunflower, pH 5): 0.745 | Ratio (Ala/No Ala) (AHAS [4]; Sunflower, pH 6): 5.20 | in vivo AHAS activity, Alanine (%) 1 (AHAS [4]; Sunflower, pH 6): 0.843 | Ratio (Ala/No Ala) (AHAS [4]; Sunflower, pH 7): 4.10 | in vivo AHAS activity, Alanine (%) 1 (AHAS [4]; Sunflower, pH 7): 0.48 | OD 530 (AHAS [4]; sunflower, 1% Alanine, disc size 0.25 cm^2, 7 discs): 1.861 | OD 530 (AHAS [4]; sunflower, 1% Alanine, disc size 0.56 cm^2, 3 discs): 0.695 | OD 530 (AHAS [4]; sunflower, 1% Alanine, disc size 0.82 cm^2, 2 discs): 0.646 | OD 530 (AHAS [4]; sunflower, 1% Alanine, disc size 1.76 cm^2, 1 disc): 0.447 | Ratio (Ala/No Ala) (AHAS [5]; Canola, alanine 1.000 % vs 0.000 %, 14 hours): 5.4 | OD 530 (AHAS [5]; Canola, alanine 1.000 %, 14 hours, 500 μM CPCA): 2.838 | in vivo AHAS activity, Alanine (%) 1 (AHAS [5]; Canola, pH 4, alanine 1 %, 14 hours): 2.271 | Ratio (Ala/No Ala) (AHAS [5]; Canola, pH 5, 14 hours): 2.94 | in vivo AHAS activity, Alanine (%) 1 (AHAS [5]; Canola, pH 5, alanine 1 %, 14 hours): 2.383 | Ratio (Ala/No Ala) (AHAS [5]; Canola, pH 6, 14 hours): 3.12 | in vivo AHAS activity, Alanine (%) 1 (AHAS [5]; Canola, pH 6, alanine 1 %, 14 hours): 2.036 | Ratio (Ala/No Ala) (AHAS [5]; Canola, pH 7, 14 hours): 2.38 | Increased Activity (%) (AHAS [5]; canola 45A71, alanine 0.063 % compared with no alanine): 150% | OD 530 (AHAS [5]; canola 45A71, alanine 0.063 %, pH 6, 14 hours): 0.785 | Increased Activity (%) (AHAS [5]; canola 45A71, alanine 0.125 % compared with no alanine): 182% | OD 530 (AHAS [5]; canola 45A71, alanine 0.125 %, pH 6, 14 hours): 0.955 | Increased Activity (%) (AHAS [5]; canola 45A71, alanine 0.25 % compared with no alanine): 181% | OD 530 (AHAS [5]; canola 45A71, alanine 0.25 %, pH 6, 14 hours): 0.946 | Increased Activity (%) (AHAS [5]; canola 45A71, alanine 0.5 % compared with no alanine): 198% | OD 530 (AHAS [5]; canola 45A71, alanine 0.5 %, pH 6, 14 hours): 1.038 | Increased Activity (%) (AHAS [5]; canola 45A71, alanine 1 % compared with no alanine): 262% | OD 530 (AHAS [5]; canola 45A71, alanine 1 %, pH 6, 14 hours): 1.373 | Increased Activity (%) (AHAS [5]; canola 45A71, alanine 2 % compared with no alanine): 290% | OD 530 (AHAS [5]; canola 45A71, alanine 2 %, pH 6, 14 hours): 1.518 | Increased Activity (%) (AHAS [5]; canola 45A71, alanine 4 % compared with no alanine): 190% | OD 530 (AHAS [5]; canola 45A71, alanine 4 %, pH 6, 14 hours): 0.997 | Increased Activity (%) (AHAS [5]; canola Westar, alanine 0.063 % compared with no alanine): 195% | OD 530 (AHAS [5]; canola Westar, alanine 0.063 %, pH 6, 14 hours): 0.978 | Increased Activity (%) (AHAS [5]; canola Westar, alanine 0.125 % compared with no alanine): 177% | OD 530 (AHAS [5]; canola Westar, alanine 0.125 %, pH 6, 14 hours): 0.885 | Increased Activity (%) (AHAS [5]; canola Westar, alanine 0.25 % compared with no alanine): 239% | OD 530 (AHAS [5]; canola Westar, alanine 0.25 %, pH 6, 14 hours): 1.197 | Increased Activity (%) (AHAS [5]; canola Westar, alanine 0.5 % compared with no alanine): 229% | OD 530 (AHAS [5]; canola Westar, alanine 0.5 %, pH 6, 14 hours): 1.149 | Increased Activity (%) (AHAS [5]; canola Westar, alanine 1 % compared with no alanine): 396% | OD 530 (AHAS [5]; canola Westar, alanine 1 %, pH 6, 14 hours): 1.983 | Increased Activity (%) (AHAS [5]; canola Westar, alanine 2 % compared with no alanine): 250% | OD 530 (AHAS [5]; canola Westar, alanine 2 %, pH 6, 14 hours): 1.25 | Increased Activity (%) (AHAS [5]; canola Westar, alanine 4 % compared with no alanine): 201% | OD 530 (AHAS [5]; canola Westar, alanine 4 %, pH 6, 14 hours): 1.009 | % of No Alaninor Pyruvate (AHAS [5]; canola, Alanine 0.5 %, 14 hours): 144% | % of No Alaninor Pyruvate (AHAS [5]; canola, Alanine 1 %, 14 hours): 174% | % of 0/0 (AHAS [5]; [9]): 129% and 104% and 100% | OD 530, Avg. of the treated discs (AHAS [5]; [9]): 1.538 and 1.574 and 1.298 | OD 530, Treated (AHAS [5]; canola, Alanine (100 mM), single treated discs, replicates 1-3, 14 hours): 1.529 and 1.487 and 1.335 and 1.760 and 1.691 and 1.551 and 1.498 and 1.571 and 1.007 | Ratio (Ala/No Ala) (AHAS [6]; pH 4, 14 hours): 2.78 | in vivo AHAS activity, Alanine (%) 1 (AHAS [6]; pH 7, alanine 1 %, 14 hours): 2.299
